System: ncRNAs (SEQ ID NO 28-89)
Assay: ncRNA arrays of melanocytes, keratinocytes, normal skin, melanoma cell lines and patient samples
Design: species or system human
Settings: for ncRNA array expression, patient 2: melanoma patient 2 sample compared to normal skin; for ncRNA array expression, patient 3: melanoma patient 3 sample compared to normal skin; for ncRNA array expression, patient 4: melanoma patient 4 sample compared to normal skin; for ncRNA array expression, patient 5: melanoma patient 5 sample compared to normal skin; for ncRNA array expression, patient 6: melanoma patient 6 sample compared to normal skin; for ncRNA array expression, patient 7: melanoma patient 7 sample compared to normal skin; for ncRNA array expression, patient 8: melanoma patient 8 sample compared to normal skin; for ncRNA array expression, patient 9: melanoma patient 9 sample compared to normal skin; for ncRNA array expression, patient 10: melanoma patient 10 sample compared to normal skin; for ncRNA array expression, patient 19: melanoma patient 19 sample compared to normal skin; for ncRNA array expression, patient 20: melanoma patient 20 sample compared to normal skin; for ncRNA array expression, patient 21: melanoma patient 21 sample compared to normal skin; for ncRNA array expression, patient 22: melanoma patient 22 sample compared to normal skin; for ncRNA array expression, patient 23: melanoma patient 23 sample compared to normal skin; for ncRNA array expression, patient 24: melanoma patient 24 sample compared to normal skin; for ncRNA array expression, patient 25: melanoma patient 25 sample compared to normal skin; for ncRNA array expression, patient 26: melanoma patient 26 sample compared to normal skin; for ncRNA array expression, patient 27: melanoma patient 27 sample compared to normal skin; for ncRNA array expression, patient 28: melanoma patient 28 sample compared to normal skin; for ncRNA array expression, patient 29: melanoma patient 29 sample compared to normal skin; for ncRNA array expression, patient 30: melanoma patient 30 sample compared to normal skin
In short: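 Total RNA from melanocytes, keratinocytes, normal human skin, melanoma cell lines and melanoma patient samples was profiled on an array of >10,000 putative (>200 nt) human and mouse ncRNAs plus RefSeq mRNA probes. Expression was compared with melanocytes or normal skin, keratinocyte signatures were subtracted, and hits were validated by qRT-PCR and Northern blot.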

Substance | ncRNA array expression, patient 2 | ncRNA array expression, patient 3 | ncRNA array expression, patient 4 | ncRNA array expression, patient 5 | ncRNA array expression, patient 6 | ncRNA array expression, patient 7 | ncRNA array expression, patient 8 | ncRNA array expression, patient 9 | ncRNA array expression, patient 10 | ncRNA array expression, patient 19 | ncRNA array expression, patient 20 | ncRNA array expression, patient 21 | ncRNA array expression, patient 22 | ncRNA array expression, patient 23 | ncRNA array expression, patient 24 | ncRNA array expression, patient 25 | ncRNA array expression, patient 26 | ncRNA array expression, patient 27 | ncRNA array expression, patient 28 | ncRNA array expression, patient 29 | other results
SEQ ID NO 64 (TTGCCTAGGAACAAAGAAGGCTTGTGAGGAGATCAAGGAACTTACATGAAATTGTAGGAA; listed as DNA, chemistry not given here; listed as Homo sapiens) | 2.496 | 1.673 | 4.824 | 1.546 | 1.8 | 1.389 | 2.2638 | 1.339 | 2.481 | 0.2184 | 2.311 | 2.601 | 1.302 | 0.9911 | 2.424 | 2.502 | 2.729 | 2.69 | 2.932 | 1.473 | ncRNA array expression, patient 30: −2.097
SEQ ID NO 65 (CACCGTTTTACTTTTTGTGGGGAGGGGAAGCAGTATCAAAATTTCTTCGGGCGCCAGAAC; listed as DNA, chemistry not given here; listed as Homo sapiens) | −1.177 | −1.344 | −1.215 | −1.301 | −1.643 | −1.264 | −1.391 | −1.267 | −0.3046 | −0.6567 | −1.283 | −1.289 | −1.03 | −1.597 | −1.241 | −1.384 | −1.415 | −1.388 | −1.421 | −1.2518 | ncRNA array expression, patient 30: 0.5803
SEQ ID NO 66 (TCCTTTTTATCTTGCACTCAGATGGTATTTTTAGAGATGTTTCTTCAATCAAAACAAGAT; listed as DNA, chemistry not given here; listed as Homo sapiens) | 2.553 | 2.044 | 2.799 | 1.983 | 2.127 | 2.319 | 2.869 | 1.498 | 1.587 | 0.7228 | 2.462 | 2.263 | 1.15 | 1.37 | 1.434 | 2.534 | 2.984 | 2.334 | 2.749 | 3.271 | ncRNA array expression, patient 30: −2.558
SEQ ID NO 67 (TTCCCTATTCCATCCTTTGATGGGTGGCCTGTTACACGTTTGGAAATAAAAACAAGTGGG; listed as DNA, chemistry not given here; listed as Homo sapiens) | 2.053 | 1.721 | 0.6532 | 4.146 | 1.481 | 2.486 | 1.375 | 1.111 | 3.887 | 0.7069 | 1.071 | 3.856 | 1.186 | 2.369 | 1.045 | 0.3622 | 0.8179 | 1.392 | 6.659 | 2.096 | ncRNA array expression, patient 30: −1.191
SEQ ID NO 68 (CAAAAAGAAATCTTGTTTACTTGTAAAAATATAGACTACCTCCTACTTGCCACCGTTAAG; listed as DNA, chemistry not given here; listed as Homo sapiens) | −1.029 | −0.899 | −1.233 | −1.828 | −0.6441 | −2.078 | −0.8097 | −1.121 | −1.445 | −0.5985 | −1.379 | −1.385 | −0.8953 | −0.7105 | −1.38 | −1.607 | −1.329 | −1.5151 | −1.556 | −1.309 | ncRNA array expression, patient 30: −0.1058
SEQ ID NO 69 (AGAGTTCGCACTGGGAAGAGTTAAAAAATAAACATTTACAAGGACGAGGAAAGCGGCCCC; listed as DNA, chemistry not given here; listed as Homo sapiens) | −1.697 | −1.8068 | −1.369 | −1.797 | −0.5526 | −1.8141 | −1.777 | −1.618 | −1.696 | −0.9749 | −1.422 | −1.5966 | −0.8782 | −0.2153 | −1.796 | −1.178 | −1.015 | −0.7594 | −1.693 | −1.645 | ncRNA array expression, patient 30: 0.8457
SEQ ID NO 70 (AGTTATAGAGGAGGCTCAGGAGGATCTGGGGAAACGGGACCAGAGGGTAAGATGGGTTAT; listed as DNA, chemistry not given here; listed as Homo sapiens) | −1.553 | −1.673 | −1.217 | −1.521 | −1.483 | −1.751 | −2.182 | −1.366 | −0.6931 | −1.792 | −1.615 | −1.1 | −1.351 | −0.7876 | −1.593 | −1.473 | −1.495 | −1.848 | −1.549 | −1.625 | ncRNA array expression, patient 30: −0.6666
SEQ ID NO 71 (AAAATTCCAAGAGGGCCTTTTCGAATAGACGCATGAACGGTGTTTGTGTCTGGATCGTCC; listed as DNA, chemistry not given here; listed as Homo sapiens) | 0.7413 | 0.6126 | 1.336 | 2.628 | 1.002 | 1.936 | 0.7221 | 0.1592 | 1.787 | 3.439 | 1.577 | 1.245 | 1.105 | 0.258 | 2.527 | 2.034 | 1.058 | 1.849 | 0.926 | 2.387 | ncRNA array expression, patient 30: −2.464
